Assay results reported in paper PMC12454493, “Insight on novel sulfamoylphenyl pyrazole derivatives as anticancer carbonic anhydrase inhibitors” (Molecular Diversity, 2024).
Where “and” joins values, the source holds several entries; their conditions need not be identical. Identical values can stand only once.

How the values were obtained:
[1] = tested on: RPMI-8226; test: NCI-60 one-dose SRB screen (Leukemia); type: cell-based; details: Homo sapiens, single dose 10 µM, 48 h, read-out: Growth inhibition percent (GI %)
Protocol: (§1) The National Cancer Institute (NCI) Developmental Therapeutic Program (www.dtp.nci.nih.gov) selected the 20 novel synthesized compounds 4a-e, 5a-e, 6a-c, 9a-e, 10 and 11 to test for their anticancer activity at a single dose of 10 µM using SRB assay. […] Supplementary Data S3; Table S1 presents the detailed screening results of the most promising compounds. The preliminary screening’s detailed results for the remaining compounds are elucidated in the (Supplementary Data S3; Table S2).
(§2) The guidelines of the Drug Evaluation Branch’s protocol at the NCI in Bethesda served as the basis for the in vitro anticancer screening assays. at one dose 10 µM against a panel of 60 cancer cell lines. The human tumor cell lines used belonged to nine panels: leukemia, melanoma, lung, colon, CNS, ovarian, renal, prostate and breast cancers using the sulforhodamine B (SRB) assay in a 48 h drug exposure protocol.

[2] = tested on: CCRF-CEM; test: NCI-60 one-dose SRB screen (Leukemia); type: cell-based; details: Homo sapiens, single dose 10 µM, 48 h, read-out: Growth inhibition percent (GI %)
Protocol: as §1, §2

[3] = tested on: SR; test: NCI-60 one-dose SRB screen (Leukemia); type: cell-based; details: Homo sapiens, single dose 10 µM, 48 h, read-out: Growth inhibition percent (GI %)
Protocol: as §1, §2

[4] = tested on: HL-60(TB); test: NCI-60 one-dose SRB screen (Leukemia); type: cell-based; details: Homo sapiens, single dose 10 µM, 48 h, read-out: Growth inhibition percent (GI %)
Protocol: as §1, §2

[5] = tested on: MOLT-4; test: NCI-60 one-dose SRB screen (Leukemia); type: cell-based; details: Homo sapiens, single dose 10 µM, 48 h, read-out: Growth inhibition percent (GI %)
Protocol: as §1, §2

[6] = tested on: K-562; test: NCI-60 one-dose SRB screen (Leukemia); type: cell-based; details: Homo sapiens, K562, single dose 10 µM, 48 h, read-out: Growth inhibition percent (GI %)
Protocol: as §1, §2

[7] = tested on: CAKI-1; test: NCI-60 one-dose SRB screen (Renal Cancer); type: cell-based; details: Homo sapiens, single dose 10 µM, 48 h, read-out: Growth inhibition percent (GI %)
Protocol: as §1, §2

[8] = tested on: UO-31; test: NCI-60 one-dose SRB screen (Renal Cancer); type: cell-based; details: Homo sapiens, single dose 10 µM, 48 h, read-out: Growth inhibition percent (GI %)
Protocol: as §1, §2

[9] = tested on: ACHN; test: NCI-60 one-dose SRB screen (Renal Cancer); type: cell-based; details: Homo sapiens, single dose 10 µM, 48 h, read-out: Growth inhibition percent (GI %)
Protocol: as §1, §2

[10] = tested on: RXF 393; test: NCI-60 one-dose SRB screen (Renal Cancer); type: cell-based; details: Homo sapiens, single dose 10 µM, 48 h, read-out: Growth inhibition percent (GI %)
Protocol: as §1, §2

[11] = tested on: TK-10; test: NCI-60 one-dose SRB screen (Renal Cancer); type: cell-based; details: Homo sapiens, single dose 10 µM, 48 h, read-out: Growth inhibition percent (GI %)
Protocol: as §1, §2

[12] = tested on: A498; test: NCI-60 one-dose SRB screen (Renal Cancer); type: cell-based; details: Homo sapiens, single dose 10 µM, 48 h, read-out: Growth inhibition percent (GI %)
Protocol: as §1, §2

[13] = tested on: 786-0; test: NCI-60 one-dose SRB screen (Renal Cancer); type: cell-based; details: Homo sapiens, single dose 10 µM, 48 h, read-out: Growth inhibition percent (GI %)
Protocol: as §1, §2

[14] = tested on: OVCAR-8; test: NCI-60 one-dose SRB screen (Ovarian cancer); type: cell-based; details: Homo sapiens, single dose 10 µM, 48 h, read-out: Growth inhibition percent (GI %)
Protocol: as §1, §2

[15] = tested on: NCI/ADR-RES; test: NCI-60 one-dose SRB screen (Ovarian cancer); type: cell-based; details: Homo sapiens, single dose 10 µM, 48 h, read-out: Growth inhibition percent (GI %)
Protocol: as §1, §2

[16] = tested on: OVCAR-4; test: NCI-60 one-dose SRB screen (Ovarian cancer); type: cell-based; details: Homo sapiens, single dose 10 µM, 48 h, read-out: Growth inhibition percent (GI %)
Protocol: as §1, §2

[17] = tested on: OVCAR-3; test: NCI-60 one-dose SRB screen (Ovarian cancer); type: cell-based; details: Homo sapiens, single dose 10 µM, 48 h, read-out: Growth inhibition percent (GI %)
Protocol: as §1, §2

[18] = tested on: IGROV1; test: NCI-60 one-dose SRB screen (Ovarian cancer); type: cell-based; details: Homo sapiens, IGROV-1, single dose 10 µM, 48 h, read-out: Growth inhibition percent (GI %)
Protocol: as §1, §2

[19] = tested on: T-47D; test: NCI-60 one-dose SRB screen (Breast Cancer); type: cell-based; details: Homo sapiens, T47D, single dose 10 µM, 48 h, read-out: Growth inhibition percent (GI %)
Protocol: as §1, §2

[20] = tested on: HS 578T; test: NCI-60 one-dose SRB screen (Breast Cancer); type: cell-based; details: Homo sapiens, single dose 10 µM, 48 h, read-out: Growth inhibition percent (GI %)
Protocol: as §1, §2

[21] = tested on: MDA-MB-468; test: NCI-60 one-dose SRB screen (Breast Cancer); type: cell-based; details: Homo sapiens, single dose 10 µM, 48 h, read-out: Growth inhibition percent (GI %)
Protocol: as §1, §2

[22] = tested on: BT-549; test: NCI-60 one-dose SRB screen (Breast Cancer); type: cell-based; details: Homo sapiens, single dose 10 µM, 48 h, read-out: Growth inhibition percent (GI %)
Protocol: as §1, §2

[23] = tested on: MDA-MB-231/ATCC; test: NCI-60 one-dose SRB screen (Breast Cancer); type: cell-based; details: Homo sapiens, single dose 10 µM, 48 h, read-out: Growth inhibition percent (GI %)
Protocol: as §1, §2

[24] = tested on: MCF-7; test: NCI-60 one-dose SRB screen (Breast Cancer); type: cell-based; details: Homo sapiens, MCF7, single dose 10 µM, 48 h, read-out: Growth inhibition percent (GI %)
Protocol: as §1, §2

[25] = tested on: LOX IMVI; test: NCI-60 one-dose SRB screen (Melanoma); type: cell-based; details: Homo sapiens, single dose 10 µM, 48 h, read-out: Growth inhibition percent (GI %)
Protocol: as §1, §2

[26] = tested on: MALME-3M; test: NCI-60 one-dose SRB screen (Melanoma); type: cell-based; details: Homo sapiens, single dose 10 µM, 48 h, read-out: Growth inhibition percent (GI %)
Protocol: as §1, §2

[27] = tested on: SK-MEL-5; test: NCI-60 one-dose SRB screen (Melanoma); type: cell-based; details: Homo sapiens, single dose 10 µM, 48 h, read-out: Growth inhibition percent (GI %)
Protocol: as §1, §2

[28] = tested on: SK-MEL-2; test: NCI-60 one-dose SRB screen (Melanoma); type: cell-based; details: Homo sapiens, single dose 10 µM, 48 h, read-out: Growth inhibition percent (GI %)
Protocol: as §1, §2

[29] = tested on: MDA-MB-435; test: NCI-60 one-dose SRB screen (Melanoma); type: cell-based; details: Homo sapiens, single dose 10 µM, 48 h, read-out: Growth inhibition percent (GI %)
Protocol: as §1, §2

[30] = tested on: UACC-62; test: NCI-60 one-dose SRB screen (Melanoma); type: cell-based; details: Homo sapiens, single dose 10 µM, 48 h, read-out: Growth inhibition percent (GI %)
Protocol: as §1, §2

[31] = tested on: UACC-257; test: NCI-60 one-dose SRB screen (Melanoma); type: cell-based; details: Homo sapiens, single dose 10 µM, 48 h, read-out: Growth inhibition percent (GI %)
Protocol: as §1, §2

[32] = tested on: M14; test: NCI-60 one-dose SRB screen (Melanoma); type: cell-based; details: Homo sapiens, single dose 10 µM, 48 h, read-out: Growth inhibition percent (GI %)
Protocol: as §1, §2

[33] = tested on: SK-MEL-28; test: NCI-60 one-dose SRB screen (Melanoma); type: cell-based; details: Homo sapiens, single dose 10 µM, 48 h, read-out: Growth inhibition percent (GI %)
Protocol: as §1, §2

[34] = biological target: hCA XII (Homo sapiens, UniProt O43570); test: CA inhibitory activity, spectrophotometric p-NPA assay; type: biochemical
[35] = tested on: COLO 205; test: NCI-60 one-dose SRB screen (Colon Cancer); type: cell-based; details: Homo sapiens, single dose 10 µM, 48 h, read-out: Growth inhibition percent (GI %)
Protocol: as §1, §2

[36] = tested on: KM12; test: NCI-60 one-dose SRB screen (Colon Cancer); type: cell-based; details: Homo sapiens, single dose 10 µM, 48 h, read-out: Growth inhibition percent (GI %)
Protocol: as §1, §2

[37] = tested on: HCT-116; test: NCI-60 one-dose SRB screen (Colon Cancer); type: cell-based; details: Homo sapiens, single dose 10 µM, 48 h, read-out: Growth inhibition percent (GI %)
Protocol: as §1, §2

[38] = tested on: SW-620; test: NCI-60 one-dose SRB screen (Colon Cancer); type: cell-based; details: Homo sapiens, single dose 10 µM, 48 h, read-out: Growth inhibition percent (GI %)
Protocol: as §1, §2

[39] = tested on: HT29; test: NCI-60 one-dose SRB screen (Colon Cancer); type: cell-based; details: Homo sapiens, HT-29, single dose 10 µM, 48 h, read-out: Growth inhibition percent (GI %)
Protocol: as §1, §2

[40] = tested on: HCT-15; test: NCI-60 one-dose SRB screen (Colon Cancer); type: cell-based; details: Homo sapiens, single dose 10 µM, 48 h, read-out: Growth inhibition percent (GI %)
Protocol: as §1, §2

[41] = tested on: HCC-2998; test: NCI-60 one-dose SRB screen (Colon Cancer); type: cell-based; details: Homo sapiens, single dose 10 µM, 48 h, read-out: Growth inhibition percent (GI %)
Protocol: as §1, §2

[42] = tested on: PC-3; test: NCI-60 one-dose SRB screen (Prostate Cancer); type: cell-based; details: Homo sapiens, single dose 10 µM, 48 h, read-out: Growth inhibition percent (GI %)
Protocol: as §1, §2

[43] = tested on: DU-145; test: NCI-60 one-dose SRB screen (Prostate Cancer); type: cell-based; details: Homo sapiens, single dose 10 µM, 48 h, read-out: Growth inhibition percent (GI %)
Protocol: as §1, §2

[44] = biological target: hCA IX (Homo sapiens, UniProt Q16790); test: CA inhibitory activity, spectrophotometric p-NPA assay; type: biochemical

hCA XII, sequence (O43570 25-354): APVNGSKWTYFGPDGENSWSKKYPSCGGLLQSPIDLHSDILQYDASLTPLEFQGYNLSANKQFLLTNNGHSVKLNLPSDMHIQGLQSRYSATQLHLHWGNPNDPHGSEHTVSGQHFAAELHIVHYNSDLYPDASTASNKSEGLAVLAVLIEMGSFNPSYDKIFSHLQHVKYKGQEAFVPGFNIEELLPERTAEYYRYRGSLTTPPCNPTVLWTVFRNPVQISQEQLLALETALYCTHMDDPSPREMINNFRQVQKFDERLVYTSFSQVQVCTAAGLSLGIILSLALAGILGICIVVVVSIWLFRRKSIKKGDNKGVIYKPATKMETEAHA

For `CS(=O)(=O)c1ccc(-c2nn(-c3ccc(S(N)(=O)=O)cc3)cc2C(=O)OCC(=O)Nc2ccc(S(N)(=O)=O)cc2)cc1` [Compound 4e, 2-Oxo-2-[(4-sulfamoylphenyl)amino] ethyl 3-(4-(methylsulfonyl)phenyl)-1-(4-sulfamoylphenyl)-1H-pyrazole-4-carboxylate], the inhibition at 10 µM [1] was < 5%, the inhibition at 10 µM [2] was < 5% and the inhibition at 10 µM [3] was < 5%. The inhibition at 10 µM [4] was < 5%, the inhibition at 10 µM [5] was < 5% and the inhibition at 10 µM [6] was < 5%. For the same molecule, the inhibition at 10 µM [7] was 8.93%, the inhibition at 10 µM [8] was 8.95% and the inhibition at 10 µM [9] was < 5%. For the same molecule, the inhibition at 10 µM [10] was < 5%, the inhibition at 10 µM [11] was < 5% and the inhibition at 10 µM [12] was < 5%. For the same molecule, the inhibition at 10 µM [13] was < 5%, the inhibition at 10 µM [14] was < 5% and the inhibition at 10 µM [15] was < 5%. For the same molecule, the inhibition at 10 µM [16] was < 5%, the inhibition at 10 µM [17] was < 5% and the inhibition at 10 µM [18] was < 5%. For the same molecule, the inhibition at 10 µM [19] was < 5%, the inhibition at 10 µM [20] was < 5% and the inhibition at 10 µM [21] was < 5%. The inhibition at 10 µM [22] was < 5%, the inhibition at 10 µM [23] was < 5% and the inhibition at 10 µM [24] was < 5%. For the same molecule, the inhibition at 10 µM [25] was < 5%, the inhibition at 10 µM [26] was < 5% and the inhibition at 10 µM [27] was < 5%. The inhibition at 10 µM [28] was < 5%, the inhibition at 10 µM [29] was < 5% and the inhibition at 10 µM [30] was < 5%. For the same molecule, the inhibition at 10 µM [31] was 6.07%, the inhibition at 10 µM [32] was < 5% and the inhibition at 10 µM [33] was < 5%. For the same molecule, the Ki [34] was 81 nM, the IC50 ([34]; p-NPA substrate, pH 7.5, 25 °C, triplicate, read-out: IC50 (µM) ± SD hCA XII) was 0.08 µM and 0.081 µM and the inhibition at 10 µM [35] was < 5%. The inhibition at 10 µM [36] was < 5%, the inhibition at 10 µM [37] was < 5% and the inhibition at 10 µM [38] was < 5%. The inhibition at 10 µM [39] was 6.67%, the inhibition at 10 µM [40] was < 5% and the inhibition at 10 µM [41] was < 5%. The inhibition at 10 µM [42] was < 5%, the inhibition at 10 µM [43] was < 5% and the Ki [44] was 72 nM. For the same molecule, the IC50 ([44]; p-NPA substrate, pH 7.5, 25 °C, triplicate, read-out: IC50 (µM) ± SD hCA IX) was 0.07 µM and 0.072 µM.
